From ChEMBL document CHEMBL1141074, “Pharmacophore-guided drug discovery investigations leading to bioactive 5-aminotetrahydropyrazolopyridines. Implications for the binding mode of heterocyclic dopamine D3 receptor agonists” (J Med Chem, 2005)

What was measured:
[1] = target: T1, D(2) dopamine receptor (Homo sapiens, UniProt P14416); assay: High binding affinity towards human dopamine receptor 2 (long) expressed in Chinese hamster ovary cells using [3H]spiperone (0.5 nM) as radioligand; type: cell-based
T1 sequence (P14416 whole entry): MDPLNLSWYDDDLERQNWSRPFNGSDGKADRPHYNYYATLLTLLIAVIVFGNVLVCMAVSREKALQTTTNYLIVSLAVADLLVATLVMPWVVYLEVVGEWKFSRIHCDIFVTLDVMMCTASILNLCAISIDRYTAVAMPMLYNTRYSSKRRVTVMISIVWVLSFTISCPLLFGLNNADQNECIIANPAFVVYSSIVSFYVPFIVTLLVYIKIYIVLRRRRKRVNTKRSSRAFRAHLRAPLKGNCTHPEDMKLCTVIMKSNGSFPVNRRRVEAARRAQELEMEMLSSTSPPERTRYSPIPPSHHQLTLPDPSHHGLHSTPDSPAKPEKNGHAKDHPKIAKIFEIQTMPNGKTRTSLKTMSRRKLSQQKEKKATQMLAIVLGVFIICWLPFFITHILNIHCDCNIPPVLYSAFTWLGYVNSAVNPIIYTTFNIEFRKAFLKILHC

[2] = target: T2, D(3) dopamine receptor (Homo sapiens, UniProt P35462); assay: Binding affinity towards dopamine D3 receptor
T2 sequence (P35462 whole entry): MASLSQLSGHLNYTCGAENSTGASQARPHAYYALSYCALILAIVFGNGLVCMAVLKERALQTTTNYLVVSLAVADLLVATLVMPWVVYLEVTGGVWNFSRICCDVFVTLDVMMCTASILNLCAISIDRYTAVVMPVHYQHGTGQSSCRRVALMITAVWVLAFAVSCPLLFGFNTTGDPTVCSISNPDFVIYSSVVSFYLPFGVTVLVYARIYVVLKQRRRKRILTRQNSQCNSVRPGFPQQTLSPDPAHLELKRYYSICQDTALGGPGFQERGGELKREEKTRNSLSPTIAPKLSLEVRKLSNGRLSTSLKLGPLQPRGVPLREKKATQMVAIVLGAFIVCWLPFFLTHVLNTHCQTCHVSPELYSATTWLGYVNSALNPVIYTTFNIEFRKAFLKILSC

[3] = target: T2, D(3) dopamine receptor; assay: biochemical
[4] = target: T3, D(4) dopamine receptor (Homo sapiens, UniProt P21917); assay: biochemical; type: cell-based, ovary
T3 sequence (P21917 whole entry): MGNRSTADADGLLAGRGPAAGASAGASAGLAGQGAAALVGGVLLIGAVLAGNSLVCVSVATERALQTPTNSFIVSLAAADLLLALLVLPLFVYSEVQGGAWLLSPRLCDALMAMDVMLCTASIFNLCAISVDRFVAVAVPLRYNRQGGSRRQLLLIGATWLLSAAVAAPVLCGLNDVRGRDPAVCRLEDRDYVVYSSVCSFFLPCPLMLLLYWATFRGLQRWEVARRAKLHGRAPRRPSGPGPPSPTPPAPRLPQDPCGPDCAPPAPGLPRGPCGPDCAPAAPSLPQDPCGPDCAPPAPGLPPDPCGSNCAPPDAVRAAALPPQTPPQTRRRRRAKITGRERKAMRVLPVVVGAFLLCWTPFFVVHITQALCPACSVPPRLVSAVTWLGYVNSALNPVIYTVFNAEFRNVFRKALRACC

[5] = target: T1, D(2) dopamine receptor; assay: Low binding affinity towards human dopamine receptor 2 (short) expressed in Chinese hamster ovary cells using [3H]spiperone (0.5 nM) as radioligand; type: cell-based
[6] = target: T1, D(2) dopamine receptor; assay: Low binding affinity towards human dopamine receptor 2 (long) expressed in Chinese hamster ovary cells using [3H]spiperone (0.5 nM) as radioligand; type: cell-based
[7] = target: T2, D(3) dopamine receptor; assay: Effective concentration against dopamine D3 receptor
[8] = target: T3, D(4) dopamine receptor; assay: biochemical; type: cell-based, ovary; remark: listed apart in the source
[9] = target: T1, D(2) dopamine receptor; assay: biochemical; type: cell-based, ovary
[10] = target: T2, D(3) dopamine receptor; assay: biochemical; remark: listed apart in the source
[11] = target: T4, D(1A) dopamine receptor (Sus scrofa, UniProt P50130); assay: Binding affinity (low) towards porcine dopamine receptor 1 by using [3H]-SCH- 23390 (0.3 nM) as radioligand
T4 sequence (P50130 whole entry): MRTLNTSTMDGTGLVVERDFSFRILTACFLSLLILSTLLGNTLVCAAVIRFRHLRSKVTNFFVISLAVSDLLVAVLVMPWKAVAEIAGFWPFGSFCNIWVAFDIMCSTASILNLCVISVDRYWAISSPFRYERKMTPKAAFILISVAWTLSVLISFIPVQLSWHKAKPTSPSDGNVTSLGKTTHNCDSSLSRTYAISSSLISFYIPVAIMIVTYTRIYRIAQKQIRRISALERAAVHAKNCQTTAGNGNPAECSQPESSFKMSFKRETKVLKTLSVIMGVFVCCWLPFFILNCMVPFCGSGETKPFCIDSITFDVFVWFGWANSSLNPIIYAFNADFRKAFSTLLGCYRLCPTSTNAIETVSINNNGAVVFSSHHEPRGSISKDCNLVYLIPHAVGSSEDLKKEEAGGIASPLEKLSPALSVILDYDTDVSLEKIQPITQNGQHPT

[12] = target: T4, D(1A) dopamine receptor; assay: Binding affinity towards porcine dopamine receptor 1 against radioligand [3H]-SCH- 23390
[13] = target: T1, D(2) dopamine receptor; assay: Binding affinity towards human dopamine receptor 2 (long) expressed in Chinese hamster ovary cells using [3H]spiperone (0.5 nM) as radioligand; type: cell-based
[14] = target: T3, D(4) dopamine receptor; assay: Binding affinity towards human dopamine receptor 4.4 expressed in Chinese hamster ovary cells using [3H]spiperone (0.5 nM) as radioligand; type: cell-based
[15] = target: T2, D(3) dopamine receptor; assay: Binding affinity towards human dopamine receptor 3 expressed in Chinese hamster ovary cells using [3H]spiperone (0.5 nM) as radioligand; type: cell-based
[16] = target: T1, D(2) dopamine receptor; assay: Binding affinity towards human dopamine receptor 2 (short) expressed in Chinese hamster ovary cells using [3H]spiperone (0.5 nM) as radioligand; type: cell-based
[17] = target: T4, D(1A) dopamine receptor; assay: Binding affinity (low) towards porcine dopamine receptor 1 against radioligand [3H]-SCH- 23390

Row | Ki [1] [µM] | pKi [2] | Ki [3] [µM] | Ki [4] [µM] | Ki [5] [µM] | Ki [6] [µM] | EC50 [7] [µM] | Ki [8] [µM] | Ki [9] [µM] | Ki [10] [µM] | Ki [11] [µM] | Ki [12] [µM] | Ki [13] [µM] | Ki [14] [µM] | Ki [15] [µM] | Ki [16] [µM] | Ki [17] [µM] | SMILES
1 |  |  |  |  |  |  |  |  |  |  |  | > 20 | 5.9 | 14 | 12 | 4 |  | CCCN(CCC)C1CCn2ncc(C=O)c2C1 (stereo not given)
2 |  |  |  |  |  |  |  |  |  |  |  | > 20 | > 20 | > 20 | 17 | > 20 |  | CCCN(CCC)C1CCn2ncc(C(=O)OC)c2C1 (stereo not given)
3 |  |  |  |  |  |  |  |  |  |  |  | > 20 | > 100 | 90 | 12 | > 100 |  | CCCNC1CCn2ncc(C(=O)OC)c2C1 (stereo not given)

Further lines, the compound ahead of its results:

Row | SMILES | Ki [1] [µM] | pKi [2] | Ki [3] [µM] | Ki [4] [µM] | Ki [5] [µM] | Ki [6] [µM] | EC50 [7] [µM] | Ki [8] [µM] | Ki [9] [µM] | Ki [10] [µM] | Ki [11] [µM] | Ki [12] [µM] | Ki [13] [µM] | Ki [14] [µM] | Ki [15] [µM] | Ki [16] [µM] | Ki [17] [µM]
4 | CCCN(CCC)[C@H]1CCn2nccc2C1 | 0.18 | 8.4 | 0.004 | 1.7 | 10 | 15 | 0.0034 | 0.058 | 0.25 | 0.11 | > 20 |  |  |  |  |  | 
5 | CCCN(CCC)C1CCn2ncc(Cl)c2C1 (stereo not given) | 0.12 |  | 0.0061 | 6.4 | 12 | > 20 | 0.0045 | 0.2 | 0.21 | 0.23 | > 20 |  |  |  |  |  | 
6 | CCCN(CCC)[C@@H]1CCn2nccc2C1 |  |  |  |  |  |  |  |  |  |  |  | > 20 | > 20 | 13 | 2.7 | > 20 | 
7 | CCCN(CCC)C1CCn2ncc(CO)c2C1 (stereo not given) |  |  |  |  |  |  |  |  |  |  |  | > 20 | > 20 | 16 | 4 | > 20 | 
8 | CCCN(CCC)C1CCn2nccc2C1 (racemic) | 0.22 |  | 0.0067 | 1.6 | 8.5 | 18 |  | 0.058 | 0.16 | 0.2 |  |  |  |  |  |  | > 20
